Laboratory results: ChEMBL document CHEMBL5126636, “Antibacterial Gilvocarcin-Type Aryl-C-Glycosides from a Soil-Derived Streptomyces Species” (2022)
Converted amounts (≈) assume the structure as drawn.

Assays:
Type in all cases: functional
[1] = system: Staphylococcus aureus; assay: Antibacterial activity against Staphylococcus aureus ATCC 6538 by broth microdilution method
[2] = system: Candida albicans; assay: Antibacterial activity against Candida albicans ATCC 10231 by broth microdilution method
[3] = system: Nakaseomyces glabratus; assay: Antibacterial activity against Candida Candida glabrata ATCC 2001 by broth microdilution method
[4] = system: Staphylococcus aureus; assay: Antibacterial activity against methicillin resistant Staphylococcus aureus ATCC 43300 by broth microdilution method
[5] = system: Escherichia coli; assay: Antibacterial activity against Escherichia coli ATCC 11775 by broth microdilution method
[6] = system: Pseudomonas aeruginosa; assay: Antibacterial activity against Pseudomonas aeruginosa ATCC 10145 by broth microdilution method

| SMILES | MIC [1] [mg/L] | MIC [2] [mg/L] | MIC [3] [mg/L] | MIC [4] [mg/L] | MIC [5] [mg/L] | MIC [6] [mg/L] |
| --- | --- | --- | --- | --- | --- | --- |
| COc1cc2c(oc(=O)c3cc(C(O)CCl)cc(OC)c32)c2c([C@H]3O[C@@H]([C@@H](C)O)[C@H](O)[C@H]3O)ccc(O)c12 (stereo partly drawn) | > 64 | > 64 | > 64 | > 64 | > 64 | > 64 |
| O=C(O)c1cn(C2CC2)c2cc(N3CCNCC3)c(F)cc2c1=O [CIPROFLOXACIN] | 0.25 (≈ 0.754 µM) | – | – | 0.5 (≈ 1.51 µM) | – | – |
| C=Cc1cc(OC)c2c(c1)c(=O)oc1c2cc(OC)c2c(O)ccc([C@@H]3O[C@@H]([C@H](O)CO)[C@H](O)[C@H]3O)c21 | 16 (≈ 31.3 µM) | > 64 | > 64 | 8 (≈ 15.7 µM) | > 64 | > 64 |
| CCc1cc(OC)c2c(c1)c(=O)oc1c2cc(OC)c2c(O)ccc([C@H]3O[C@@H]([C@@H](C)O)[C@H](O)[C@H]3O)c21 | > 64 | > 64 | > 64 | > 64 | > 64 | > 64 |
| COc1cc2c(oc(=O)c3cc(C)cc(OC)c32)c2c([C@H]3O[C@@H]([C@@H](C)O)[C@H](O)[C@H]3O)ccc(O)c12 | 1 (≈ 2.07 µM) | > 64 | > 64 | 2 (≈ 4.15 µM) | > 64 | > 64 |
| C=Cc1cc(OC)c2c(c1)c(=O)oc1c2cc(OC)c2c(OC(C)=O)ccc([C@H]3O[C@@H]([C@@H](C)OC(C)=O)[C@H](OC(C)=O)[C@H]3OC(C)=O)c21 | > 64 | > 64 | > 64 | > 64 | > 64 | > 64 |
| COc1cc2c(oc(=O)c3cc(C)cc(OC)c32)c2c([C@H]3O[C@@H]([C@@H](C)OC(C)=O)[C@H](OC(C)=O)[C@H]3OC(C)=O)ccc(OC(C)=O)c12 | > 64 | > 64 | > 64 | > 64 | > 64 | > 64 |
| COc1cc2c(oc(=O)c3cc(C(O)CO)cc(OC)c32)c2c([C@H]3O[C@@H]([C@@H](C)O)[C@H](O)[C@H]3O)ccc(O)c12 (stereo partly drawn) | > 64 | > 64 | > 64 | > 64 | > 64 | > 64 |
| COc1cc2c(oc(=O)c3cc(CO)cc(OC)c32)c2c([C@H]3O[C@@H]([C@@H](C)O)[C@H](O)[C@H]3O)ccc(O)c12 | > 64 | > 64 | > 64 | > 64 | > 64 | > 64 |
| COc1cc2c(oc(=O)c3cc([C@H](C)O)cc(OC)c32)c2c([C@H]3O[C@@H]([C@@H](C)O)[C@H](O)[C@H]3O)ccc(O)c12 | > 64 | > 64 | > 64 | > 64 | > 64 | > 64 |
| C=Cc1cc(OC)c2c(c1)c(=O)oc1c2cc(OC)c2c(O)ccc([C@@H]3O[C@@H]([C@@H](C)O)[C@H](O)[C@H]3O)c21 | 64 (≈ 129 µM) | > 64 | > 64 | 16 (≈ 32.4 µM) | > 64 | > 64 |
| C=Cc1cc(OC)c2c(c1)c(=O)oc1c2cc(OC)c2c(O)ccc([C@H]3O[C@@H]([C@@H](C)O)[C@H](O)[C@H]3O)c21 | 0.5 (≈ 1.01 µM) | > 64 | > 64 | 0.25 (≈ 0.506 µM) | > 64 | > 64 |
| COc1cc2c(oc(=O)c3cc(C(C)C)cc(OC)c32)c2c([C@H]3O[C@@H]([C@@H](C)O)[C@H](O)[C@H]3O)ccc(O)c12 | > 64 | > 64 | > 64 | 16 (≈ 31.3 µM) | > 64 | > 64 |
| COc1cc2c(oc(=O)c3cc([C@H]4CC[C@H]4c4cc(OC)c5c(c4)c(=O)oc4c5cc(OC)c5c(O)ccc([C@H]6O[C@@H]([C@@H](C)O)[C@H](O)[C@H]6O)c54)cc(OC)c32)c2c([C@H]3O[C@@H]([C@@H](C)O)[C@H](O)[C@H]3O)ccc(O)c12 | 8 (≈ 8.09 µM) | > 64 | > 64 | 4 (≈ 4.04 µM) | > 64 | > 64 |
| C=Cc1cc(OC)c2c(c1)c(=O)oc1c3cccc(O)c3c(OC)cc12 | > 64 | > 64 | > 64 | > 64 | > 64 | > 64 |
| COc1cc2c(oc(=O)c3cc(CCO)cc(OC)c32)c2c([C@H]3O[C@@H]([C@@H](C)O)[C@H](O)[C@H]3O)ccc(O)c12 | 32 (≈ 62.4 µM) | > 64 | > 64 | 64 (≈ 125 µM) | > 64 | > 64 |
| COc1cc2c(oc(=O)c3cc([C@H](C)OC(C)=O)cc(OC)c32)c2c([C@H]3O[C@@H]([C@@H](C)OC(C)=O)[C@H](OC(C)=O)[C@H]3OC(C)=O)ccc(OC(C)=O)c12 | > 64 | > 64 | > 64 | > 64 | > 64 | > 64 |
